Laboratory results reported in paper PMC7799364, “Dual inhibition of the terminal oxidases eradicates antibiotic‐tolerant Mycobacterium tuberculosis” (EMBO Molecular Medicine, 2020).

What was measured:
[1] = molecular target: T1, cytochrome bd oxidase (Cyt-bd) (Mycolicibacterium smegmatis, UniProt A0QXA8); test: reduced minus oxidized heme difference spectra of NADH-energized ΔqcrCAB IMVs with […] compound; assay type: cell-based
T1 construct: gene MSMEG_3233; native enzyme in inverted-membrane vesicles of M. smegmatis ΔqcrCAB; with CydB
T1 sequence (A0QXA8 1-487): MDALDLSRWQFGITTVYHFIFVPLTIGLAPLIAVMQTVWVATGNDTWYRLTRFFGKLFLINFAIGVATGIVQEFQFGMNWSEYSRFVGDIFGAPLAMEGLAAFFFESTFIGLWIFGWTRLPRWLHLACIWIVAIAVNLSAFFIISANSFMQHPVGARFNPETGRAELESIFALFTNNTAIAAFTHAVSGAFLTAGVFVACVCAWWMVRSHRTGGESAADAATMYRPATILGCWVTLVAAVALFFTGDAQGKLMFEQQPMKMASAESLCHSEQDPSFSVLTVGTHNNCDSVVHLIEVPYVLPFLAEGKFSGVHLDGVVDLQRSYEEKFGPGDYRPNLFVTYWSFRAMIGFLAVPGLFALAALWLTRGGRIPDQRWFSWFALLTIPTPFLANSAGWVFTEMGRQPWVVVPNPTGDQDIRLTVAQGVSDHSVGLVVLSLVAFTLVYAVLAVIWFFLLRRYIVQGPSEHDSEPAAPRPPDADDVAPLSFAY
T1 sequence (A0QXA7 1-350 partner): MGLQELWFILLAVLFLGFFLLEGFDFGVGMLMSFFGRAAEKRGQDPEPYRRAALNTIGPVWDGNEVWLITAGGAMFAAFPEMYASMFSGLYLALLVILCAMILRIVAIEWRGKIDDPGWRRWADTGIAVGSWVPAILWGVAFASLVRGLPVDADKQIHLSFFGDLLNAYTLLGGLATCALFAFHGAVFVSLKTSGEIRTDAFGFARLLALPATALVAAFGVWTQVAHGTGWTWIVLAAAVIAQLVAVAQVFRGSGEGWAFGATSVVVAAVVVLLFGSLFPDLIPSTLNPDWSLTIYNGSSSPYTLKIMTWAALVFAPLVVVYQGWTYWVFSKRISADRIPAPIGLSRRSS

[2] = molecular target: T2, cytochrome bcc (QcrB, cytochrome b subunit of cytochrome bcc:aa3) (Mycolicibacterium smegmatis, UniProt A0R052); test: NADH-based heme difference spectra of wild-type IMVs with […] Q203; Q203 also inhibits OCR of ΔcydAB IMVs; assay type: cell-based
T2 construct: gene MSMEG_4263; native cytochrome bcc-aa3 supercomplex in wild-type inverted-membrane vesicles; with cytochrome bcc-aa3 supercomplex

Row | Structure (SMILES) | reduced minus oxidized heme difference spectra of NADH-energized ΔqcrCAB IMVs wi [1] | NADH-based heme difference spectra of wild-type IMVs with 7.5 μM Q203; Q203 also [2]
1 | FC(F)(F)c1ccc(Oc2ccc(Nc3ncnc4ccccc34)cc2)cc1 [ND-011992, N‐(4‐(4‐(trifluoromethyl)phenoxy)phenyl)quinazolin‐4‐amine] | the compound selectively binds and affects electron transfer in the mycobacterial Cyt‐bd | 
2 | CCc1nc2ccc(Cl)cn2c1C(=O)NCc1ccc(N2CCC(c3ccc(OC(F)(F)F)cc3)CC2)cc1 [Q203] |  | confirming drug binding and inhibition of the electron transfer within the cytochrome bcc complex
